{"source": "paper PMC8523698", "about": "“Preclinical characterization of an intravenous coronavirus 3CL protease inhibitor for the potential treatment of COVID19” (Nature Communications, 2021)", "key": {"MATE2K": {"biological_target": "T1, MATE2K (Homo sapiens, UniProt Q86VL8)", "T1 construct": "expressed in transfected cells; host or cells: HEK293", "T1 sequence (Q86VL8 1-566 isoform Q86VL8-3)": "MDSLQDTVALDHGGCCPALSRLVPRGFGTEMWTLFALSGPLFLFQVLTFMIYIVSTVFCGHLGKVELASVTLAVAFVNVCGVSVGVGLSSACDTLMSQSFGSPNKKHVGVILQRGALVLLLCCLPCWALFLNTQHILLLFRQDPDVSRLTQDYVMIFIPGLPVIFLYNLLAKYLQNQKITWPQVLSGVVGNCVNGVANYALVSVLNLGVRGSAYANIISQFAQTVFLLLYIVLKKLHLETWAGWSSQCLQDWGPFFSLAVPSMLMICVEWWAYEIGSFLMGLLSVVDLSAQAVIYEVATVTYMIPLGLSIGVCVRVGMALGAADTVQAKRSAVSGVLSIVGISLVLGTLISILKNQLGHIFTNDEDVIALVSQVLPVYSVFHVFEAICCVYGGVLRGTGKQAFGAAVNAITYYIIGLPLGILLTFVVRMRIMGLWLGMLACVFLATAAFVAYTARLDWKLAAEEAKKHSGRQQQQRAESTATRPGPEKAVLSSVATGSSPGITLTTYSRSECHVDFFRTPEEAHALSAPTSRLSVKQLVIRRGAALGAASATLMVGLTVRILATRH", "test": "Transporter inhibition using transfected HEK293 cells", "assay_type": "in vitro ADME", "settings": "IC50, [14C]Metformin (20 µM)", "method": "For the inhibition studies, HEK293 cells were washed three times with warm transport buffer (Hanks’ balanced salt solution with 20 mM 4-(2-Hydroxyethyl) piperazine-1-ethanesulfonic acid, pH 7.4) followed by incubation with test compounds containing probe substrates: 10 or 20 µM [^14C]-metformin (OCT1, OCT2, MATE1, MATE2K), 0.5 µM [^3H] para-aminohippuric acid (OAT1), 0.1 µM [^3H] estrone-3-sulfate (OAT3) or 0.5 µM rosuvastatin (OATP1B1/1B3). Uptake was terminated by washing cells at least three times with ice-cold transport buffer and then lysing with 0.2 mL of scintillation fluid or 0.225 mL of methanol containing internal standard. For radiolabeled compounds, radioactivity in each sample was quantified by measurement on MicroBeta (Perkin Elmer). For rosuvastatin, cell extracts were dried down under nitrogen and reconstituted in 50:50 (v:v) methanol:water prior to injection onto a LC-MS/MS system. The total cellular protein content was determined by using a BCA Protein Assay Kit (Pierce Biotechnology) following the manufacturer’s protocol. Uptake ratio was then derived as a ratio of accumulation in transfected cells to accumulation in wild-type cells. The half-maximal inhibitory concentration (IC50) for each transporter was calculated in GraphPad Prism."}, "[1]": {"test": "Rat pharmacokinetic study", "settings": "for AUC(0-inf): AUCinf; for Vd: Vdss"}, "[2]": {"test": "Monkey pharmacokinetic study", "settings": "Monkey, 1mg/kg intravenous"}, "[3]": {"settings": "male, Wistar-Hannover, rat, plasma, iv, 2 mg/kg, Mean, PF-00835231 active dosed 2mg/kg intravenous"}, "[4]": {"settings": "male, Wistar-Hannover, rat, plasma, iv, 2 mg/kg, PF-00835231 active dosed 2mg/kg intravenous, individual rats"}, "[5]": {"settings": "rat, PF-00835231 active dosed 2mg/kg intravenous, individual rats, 2 mg/kg"}}, "note": "Where “and” joins values, the source holds several entries; their conditions need not be identical. Equal entries are not always repeated.", "data": [{"smiles": "COc1cccc2[nH]c(C(=O)N[C@@H](CC(C)C)C(=O)N[C@@H](C[C@@H]3CCNC3=O)C(=O)CO)cc12", "note": "[PF-00835231]", "values": [{"measurement": "IC50", "setting": "MATE2K", "value": 180, "unit": "µM"}, {"measurement": "IC50", "setting": "MATE2K; human, HEK293 cells stably transfected with MATE2K, pH 7.4, probe [14C]-metformin (20 µM)", "value": "> 20", "unit": "µM"}, {"measurement": "solubility at 48 h", "setting": "Solubility measurement; deionized water and pH buffers", "value": "< 100", "unit": "µg/mL"}, {"measurement": "solubility", "setting": "Solubility measurement; standard solubilizing excipients, aqueous with cosolvent or surfactant or cyclodextrin", "value": 500, "unit": "µg/mL"}, {"measurement": "Vdss", "setting": "[1]; Rat, 2mg/kg intravenous, individual animals, 2 mg/kg", "value": "1.02 L/kg and 0.58 L/kg"}, {"measurement": "AUC(0-inf)", "setting": "[1]; [3]", "value": 1250, "unit": "ng·h/mL"}, {"measurement": "AUC(0-inf)", "setting": "[1]; [4]", "value": 1230, "unit": "ng·h/mL"}, {"measurement": "clearance", "setting": "[1]; male, Wistar-Hannover, rat, plasma, iv, 2 mg/kg, Clearance, Mean, PF-00835231 active dosed 2mg/kg intravenous", "value": 27, "unit": "mL/min/kg"}, {"measurement": "clearance", "setting": "[1]; male, Wistar-Hannover, rat, plasma, iv, 2 mg/kg, Clearance, PF-00835231 active dosed 2mg/kg intravenous, individual rats", "value": 27.1, "unit": "mL/min/kg"}, {"measurement": "half-life", "setting": "[1]; male, Wistar-Hannover, rat, plasma, iv, 2 mg/kg, Half life, Mean, PF-00835231 active dosed 2mg/kg intravenous", "value": 43.1, "unit": "min"}, {"measurement": "half-life", "setting": "[1]; male, Wistar-Hannover, rat, plasma, iv, 2 mg/kg, Half life, PF-00835231 active dosed 2mg/kg intravenous, individual rats", "value": 39.2, "unit": "min"}, {"measurement": "half-life", "setting": "[1]; male, Wistar-Hannover, rat, plasma, iv, 2 mg/kg, Terminal T1/2, rat IV, PF-07304814 […] (n=2, range), PF-00835231 2mg/kg (n=3, ± SD)", "value": "< 120", "unit": "min"}, {"measurement": "Vd", "setting": "[1]; male, Wistar-Hannover, rat, plasma, iv, 2 mg/kg, 2mg/kg intravenous, individual animals", "value": 0.637, "unit": "L/kg"}, {"measurement": "Vd", "setting": "[1]; male, Wistar-Hannover, rat, plasma, iv, 2 mg/kg, Mean, 2mg/kg intravenous", "value": 0.746, "unit": "L/kg"}, {"measurement": "Vd", "setting": "[1]; [3]", "value": 0.746, "unit": "L/kg"}, {"measurement": "Vd", "setting": "[1]; [4]", "value": 0.637, "unit": "L/kg"}, {"measurement": "Vd", "setting": "[1]; male, Wistar-Hannover, rat, plasma, iv, 2 mg/kg, Vdss input", "value": 0.75, "unit": "L/kg"}, {"measurement": "Vd", "setting": "[1]; male, Wistar-Hannover, rat, plasma, iv, 2 mg/kg, rat IV, PF-07304814 […] (n=2, range), PF-00835231 2mg/kg (n=3, ± SD)", "value": "< 1.5", "unit": "L/kg"}, {"measurement": "clearance", "setting": "[1]; male, Wistar-Hannover, rat, plasma, iv, CL, rat IV, PF-07304814 […] (n=2, range), PF-00835231 2mg/kg (n=3, ± SD)", "value": "27 ± 3.1", "unit": "mL/min/kg"}, {"measurement": "half-life", "setting": "[1]; male, Wistar-Hannover, rat, plasma, iv, Terminal T1/2, rat IV, PF-07304814 […] (n=2, range), PF-00835231 2mg/kg (n=3, ± SD)", "value": "43.2 ± 7.2", "unit": "min"}, {"measurement": "Vd", "setting": "[1]; male, Wistar-Hannover, rat, plasma, iv, rat IV, PF-07304814 […] (n=2, range), PF-00835231 2mg/kg (n=3, ± SD)", "value": "0.75 ± 0.24", "unit": "L/kg"}, {"measurement": "bioavailability", "setting": "[1]; male, Wistar-Hannover, rat, plasma, po, 2 mg/kg, Oral F%, rat, 2mg/kg PO vs IV", "value": "1.4 ± 0.76", "unit": "%"}, {"measurement": "AUC(0-t)", "setting": "[1]; male, Wistar-Hannover, rat, plasma, po, 5 mg/kg, AUCt, Mean, PF-00835231 5mg/kg PO dose", "value": 12.8, "unit": "ng·h/mL"}, {"measurement": "Urine Concn", "setting": "[1]; rat urine 0-7 h, PF-00835231 active dosed 2mg/kg intravenous, individual rats, 2 mg/kg", "value": "29200 ng/mL and 3180 ng/mL and 6320 ng/mL"}, {"measurement": "Urine Concn", "setting": "[1]; rat urine 7-24 h, PF-00835231 active dosed 2mg/kg intravenous, individual rats, 2 mg/kg", "value": "234 ng/mL and 85.6 ng/mL and 368 ng/mL"}, {"measurement": "AUCt", "setting": "[1]; rat, PF-00835231 5mg/kg PO dose, individual rats, 5 mg/kg", "value": "5.75 ng·h/mL and 18.5 ng·h/mL and 14.1 ng·h/mL"}, {"measurement": "AUCinf", "setting": "[1]; [5]", "value": "1110 ng·h/mL and 1400 ng·h/mL"}, {"measurement": "Half life", "setting": "[1]; [5]", "value": "51.4 min and 38.7 min"}, {"measurement": "Vdss", "setting": "[1]; [5]", "value": "1.02 L/kg and 0.58 L/kg"}, {"measurement": "clearance", "setting": "[1]; [5]", "value": "30 mL/min/kg and 23.8 mL/min/kg"}, {"measurement": "Oral F%", "setting": "[1]; rat, 2mg/kg PO vs IV, 2 mg/kg", "value": "< 2", "unit": "%"}, {"measurement": "Total Concn, Mean", "setting": "[2]; Time 0.083", "value": 1225, "unit": "ng/mL"}, {"measurement": "Total Concn", "setting": "[2]; Time 0.083, individual animals", "value": 1220, "unit": "ng/mL"}, {"measurement": "Total Concn", "setting": "[2]; Time 0.083, individual animals, 1 mg/kg", "value": 1230, "unit": "ng/mL"}, {"measurement": "Total Concn, Mean", "setting": "[2]; Time 0.25", "value": 365, "unit": "ng/mL"}, {"measurement": "Total Concn", "setting": "[2]; Time 0.25, individual animals", "value": 288, "unit": "ng/mL"}, {"measurement": "Total Concn", "setting": "[2]; Time 0.25, individual animals, 1 mg/kg", "value": 442, "unit": "ng/mL"}, {"measurement": "Total Concn, Mean", "setting": "[2]; Time 0.5", "value": 183, "unit": "ng/mL"}, {"measurement": "Total Concn", "setting": "[2]; Time 0.5, individual animals", "value": 154, "unit": "ng/mL"}, {"measurement": "Total Concn", "setting": "[2]; Time 0.5, individual animals, 1 mg/kg", "value": 212, "unit": "ng/mL"}, {"measurement": "Total Concn, Mean", "setting": "[2]; Time 1", "value": 107, "unit": "ng/mL"}, {"measurement": "Total Concn", "setting": "[2]; Time 1, individual animals, 1 mg/kg", "value": "89.9 ng/mL and 124 ng/mL"}, {"measurement": "Total Concn, Mean", "setting": "[2]; Time 2", "value": 46, "unit": "ng/mL"}, {"measurement": "Total Concn", "setting": "[2]; Time 2, individual animals, 1 mg/kg", "value": "45.5 ng/mL and 47 ng/mL"}, {"measurement": "Total Concn, Mean", "setting": "[2]; Time 4", "value": 13, "unit": "ng/mL"}, {"measurement": "Total Concn", "setting": "[2]; Time 4, individual animals, 1 mg/kg", "value": "12.2 ng/mL and 14 ng/mL"}, {"measurement": "Total Concn, Mean", "setting": "[2]; Time 7", "value": 2.6, "unit": "ng/mL"}, {"measurement": "Total Concn", "setting": "[2]; Time 7, individual animals, 1 mg/kg", "value": "2.87 ng/mL and 2.25 ng/mL"}]}]}
